Measured values: ChEMBL document CHEMBL3763049, “Discovery of aminoquinazoline derivatives as human A(2A) adenosine receptor antagonists” (Bioorg Med Chem Lett, 2016)
Values after ≈ are worked out from the molar mass of the structure shown.

How the values were obtained:
Adenosine receptor A2a [1] = target: Adenosine receptor A2a (Homo sapiens, UniProt P29274); assay: Displacement of [3H]SCH-58261 from human adenosine A2A receptor expressed in HEK cell membranes after 60 mins by microplate scintillation counting analysis; parameters: species or system HEK293
Adenosine receptor A1 = target: T1, Adenosine receptor A1 (Homo sapiens, UniProt P30542); assay: Displacement of [3H]DPCPX from human adenosine A1 receptor expressed in CHO cell membranes after 60 mins by microplate scintillation counting analysis
T1 sequence (P30542 whole entry): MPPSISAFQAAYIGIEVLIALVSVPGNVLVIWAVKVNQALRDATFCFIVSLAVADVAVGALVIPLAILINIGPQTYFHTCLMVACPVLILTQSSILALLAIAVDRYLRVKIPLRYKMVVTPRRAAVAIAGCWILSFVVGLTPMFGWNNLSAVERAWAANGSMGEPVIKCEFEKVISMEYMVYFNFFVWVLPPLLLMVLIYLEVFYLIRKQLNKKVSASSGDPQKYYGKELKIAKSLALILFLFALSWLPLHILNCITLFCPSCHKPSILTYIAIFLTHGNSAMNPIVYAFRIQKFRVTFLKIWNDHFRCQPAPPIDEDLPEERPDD

Adenosine receptor A2a [2] = target: Adenosine receptor A2a (Rattus norvegicus, UniProt P30543); assay: Binding affinity to rat A2A adenosine receptor
Rattus norvegicus [3] = assay: Anti-cataleptic activity in Sprague-Dawley rat assessed as inhibition of haloperidol-induced catalepsy at 10 mg/kg, po administered for 1 hr; type: functional
[4] = AUC in haloperidol-induced Sprague-Dawley rat cataleptic model at 10 mg/kg, po administered for 1 hr; type: ADME, organism-based; conditions: in vivo
Rattus norvegicus [5] = assay: Anti-cataleptic activity in Sprague-Dawley rat assessed as inhibition of haloperidol-induced catalepsy at 30 mg/kg, po administered for 1 hr; type: functional
[6] = AUC in haloperidol-induced Sprague-Dawley rat cataleptic model at 30 mg/kg, po administered for 1 hr; type: ADME, organism-based; conditions: in vivo
Rattus norvegicus [7] = assay: Anti-cataleptic activity in Sprague-Dawley rat assessed as inhibition of haloperidol-induced catalepsy at 1 mg/kg, po administered for 1 hr; type: functional
Cytochrome P450 3A4 [8] = target: T2, Cytochrome P450 3A4 (Homo sapiens, UniProt P08684); assay: Time dependent inhibition of CYP3A4 (unknown origin); type: ADME
[9] = Solubility of compound at pH 7; type: physicochemical; conditions: buffer
Adenosine receptor A2b = target: T3, Adenosine receptor A2b (Homo sapiens, UniProt P29275); assay: Binding affinity to human adenosine A2B receptor
T3 sequence (P29275 whole entry): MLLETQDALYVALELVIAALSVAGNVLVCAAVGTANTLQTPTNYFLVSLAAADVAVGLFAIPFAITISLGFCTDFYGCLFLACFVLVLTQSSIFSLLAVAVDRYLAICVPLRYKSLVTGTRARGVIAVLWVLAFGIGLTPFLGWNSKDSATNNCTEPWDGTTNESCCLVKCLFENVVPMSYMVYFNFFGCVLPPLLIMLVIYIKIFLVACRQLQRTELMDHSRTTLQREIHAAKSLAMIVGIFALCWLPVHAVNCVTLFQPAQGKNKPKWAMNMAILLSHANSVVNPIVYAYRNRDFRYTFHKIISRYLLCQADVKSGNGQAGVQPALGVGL

Adenosine receptor A3 = target: T4, Adenosine receptor A3 (Homo sapiens, UniProt P0DMS8); assay: Binding affinity to human adenosine A3 receptor
T4 sequence (P0DMS8 whole entry): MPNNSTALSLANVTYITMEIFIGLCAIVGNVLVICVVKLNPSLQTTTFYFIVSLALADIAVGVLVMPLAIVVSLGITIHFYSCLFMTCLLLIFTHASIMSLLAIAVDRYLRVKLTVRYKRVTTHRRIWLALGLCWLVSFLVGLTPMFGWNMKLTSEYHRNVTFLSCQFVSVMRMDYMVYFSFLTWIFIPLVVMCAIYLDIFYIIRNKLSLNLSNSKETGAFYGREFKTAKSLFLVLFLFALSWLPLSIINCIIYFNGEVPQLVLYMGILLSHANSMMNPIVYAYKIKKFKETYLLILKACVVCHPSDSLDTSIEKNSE

[10] = Plasma concentration in haloperidol-induced Sprague-Dawley rat cataleptic model after 1 hr; type: ADME
[11] = Drug uptake in brain of haloperidol-induced Sprague-Dawley rat cataleptic model after 1 hr; type: ADME, tissue-based; conditions: read-out: Drug uptake
[12] = Plasma protein binding in rat; type: ADME, cell-free; conditions: read-out: PPB (converted)
[13] = Plasma protein binding in human; type: ADME, cell-free; conditions: read-out: PPB (converted)
[14] = Half life in haloperidol-induced Sprague-Dawley rat cataleptic model at 1 to 30 mg/kg, po administered for 1 to 4 hrs; type: ADME, organism-based; conditions: in vivo
[15] = Permeability of the compound; type: ADME; conditions: not told; read-out: permeability
[16] = Clearance in rat hepatocytes assessed per million cells; type: ADME, cell-based, Hepatocyte; conditions: read-out: CLH
[17] = Clearance in human hepatocytes assessed per million cells; type: ADME, cell-based, Hepatocyte; conditions: read-out: CLH
Cytochrome P450 3A4 [18] = target: T2, Cytochrome P450 3A4; assay: Time dependent inhibition of CYP3A4 (unknown origin) at 30 uM relative to control; type: ADME

Sequence of Adenosine receptor A2a (Rattus norvegicus, UniProt P30543) (P30543 whole entry): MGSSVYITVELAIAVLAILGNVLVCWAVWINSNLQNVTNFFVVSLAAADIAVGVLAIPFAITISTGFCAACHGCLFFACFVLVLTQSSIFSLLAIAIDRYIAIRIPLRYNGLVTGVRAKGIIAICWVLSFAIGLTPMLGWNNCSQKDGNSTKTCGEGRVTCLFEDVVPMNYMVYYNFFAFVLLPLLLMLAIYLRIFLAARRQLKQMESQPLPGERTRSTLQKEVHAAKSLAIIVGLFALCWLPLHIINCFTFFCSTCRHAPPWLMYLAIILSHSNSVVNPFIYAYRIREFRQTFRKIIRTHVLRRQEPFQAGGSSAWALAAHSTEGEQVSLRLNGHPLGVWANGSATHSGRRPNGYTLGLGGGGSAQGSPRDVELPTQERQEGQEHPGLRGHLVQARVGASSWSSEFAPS
Sequence of Adenosine receptor A2a (Homo sapiens, UniProt P29274) (P29274 whole entry): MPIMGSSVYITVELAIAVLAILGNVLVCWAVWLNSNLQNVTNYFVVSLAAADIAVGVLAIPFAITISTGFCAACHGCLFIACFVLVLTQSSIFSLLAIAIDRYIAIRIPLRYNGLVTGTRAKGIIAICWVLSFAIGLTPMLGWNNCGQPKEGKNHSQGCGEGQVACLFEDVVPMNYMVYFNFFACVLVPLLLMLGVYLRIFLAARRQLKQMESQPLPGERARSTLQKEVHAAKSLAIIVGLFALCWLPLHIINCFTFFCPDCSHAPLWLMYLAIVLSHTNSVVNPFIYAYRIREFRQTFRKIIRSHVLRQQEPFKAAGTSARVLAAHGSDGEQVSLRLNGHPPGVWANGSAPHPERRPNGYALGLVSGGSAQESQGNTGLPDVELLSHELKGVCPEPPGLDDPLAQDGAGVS
T2 sequence (P08684 whole entry): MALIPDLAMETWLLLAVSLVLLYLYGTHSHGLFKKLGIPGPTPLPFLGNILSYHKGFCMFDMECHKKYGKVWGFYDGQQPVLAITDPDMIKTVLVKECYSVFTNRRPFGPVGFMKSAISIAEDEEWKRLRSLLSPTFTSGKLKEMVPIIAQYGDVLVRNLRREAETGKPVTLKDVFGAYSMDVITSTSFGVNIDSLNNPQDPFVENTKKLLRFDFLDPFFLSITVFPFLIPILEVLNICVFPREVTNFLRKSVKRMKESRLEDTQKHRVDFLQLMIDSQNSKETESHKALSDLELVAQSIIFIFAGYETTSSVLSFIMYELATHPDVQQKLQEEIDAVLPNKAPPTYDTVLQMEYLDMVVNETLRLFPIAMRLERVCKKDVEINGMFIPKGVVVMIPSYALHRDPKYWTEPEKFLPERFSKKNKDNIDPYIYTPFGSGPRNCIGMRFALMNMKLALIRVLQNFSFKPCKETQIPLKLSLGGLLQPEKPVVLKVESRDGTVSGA

SMILES	Ki (Adenosine receptor A2a [1])	Ki (Adenosine receptor A1)	further results
Nc1nc(C(=O)NCc2cccc3cccnc23)c2cc(F)ccc2n1	4.4 nM	346 nM	Ki (Adenosine receptor A2a [2]; read-out: Ki): 8.7 nM; inhibition in vivo at 10 mg/kg (Rattus norvegicus [3]): 55%; AUC at 1 h [4]: 0.8 µM·h
CCCCOc1ccnc2c(CNC(=O)c3nc(N)nc4c(F)cccc34)cccc12	245 nM	748 nM	Ki (Adenosine receptor A2a [2]): Not Active
Nc1nc(C(=O)NCc2cccc3cccnc23)c2cccc(-c3cncnc3)c2n1	160 nM	6300 nM	–
CSc1cccc2c(C(=O)NCc3cccc4cccnc34)nc(N)nc12	–	132 nM	Ki (Adenosine receptor A2a [2]; read-out: Ki): 12 nM; inhibition in vivo at 30 mg/kg (Rattus norvegicus [5]): 0%; AUC at 1 h [6]: 8.9 µM·h
Nc1nc(C(=O)NCc2ccnc3ccccc23)c2cccc(F)c2n1	927 nM	10000 nM	–
Nc1nc(C(=O)NCc2cccc3c(C(=O)N4CCN(c5ccccc5)CC4)ccnc23)c2cccc(F)c2n1	1540 nM	6000 nM	–
Nc1nc(C(=O)NCc2cccc3cccnc23)c2cccc(F)c2n1	0.5 nM	12 nM	Ki (Adenosine receptor A2a [2]; read-out: Ki): 1.3 nM; inhibition in vivo at 10 mg/kg (Rattus norvegicus [3]): 74%; AUC at 1 h [4]: 2.4 µM·h; inhibition in vivo at 1 mg/kg (Rattus norvegicus [7]): 30%; TDI (Cytochrome P450 3A4 [8]): Not Active
CS(=O)(=O)c1cccc2c(C(=O)NCc3cccc4cccnc34)nc(N)nc12	–	4740 nM	Ki (Adenosine receptor A2a [2]; read-out: Ki): 302 nM
Nc1nc(C(=O)NCc2cccc3cc[nH]c23)c2cccc(F)c2n1	8.2 nM	54 nM	–
Nc1nc(C(=O)NCc2cccc3c2C(=O)NC3)c2cccc(F)c2n1	1.8 nM	5.4 nM	–
Nc1nc(C(=O)NCc2cccc3cccnc23)c2cccc(C(F)(F)F)c2n1	–	1300 nM	Ki (Adenosine receptor A2a [2]; read-out: Ki): 57 nM; inhibition in vivo at 30 mg/kg (Rattus norvegicus [5]): 0%
COCCOc1ccc(N2CCN(C(=O)c3cnc4c(CNC(=O)c5nc(N)nc6c(F)cccc56)cccc4c3)CC2)cc1	4.8 nM	120 nM	Ki (Adenosine receptor A2a [2]; read-out: Ki): 11.4 nM
N#Cc1cccc2c(C(=O)NCc3cccc4cccnc34)nc(N)nc12	24 nM	337 nM	–
Nc1nc(C(=O)NCc2cccc3cccnc23)c2ccc(F)cc2n1	0.3 nM	31 nM	Ki (Adenosine receptor A2a [2]; read-out: Ki): 4.8 nM; inhibition in vivo at 10 mg/kg (Rattus norvegicus [3]): 39%; AUC at 1 h [4]: 2.3 µM·h
Nc1nc(C(=O)NCCc2ccccn2)c2cccc(F)c2n1	14 nM	600 nM	–
Nc1nc(C(=O)NCc2cccc3cccnc23)c2cc(F)c(F)cc2n1	3.6 nM	40 nM	–
C[C@@H](NC(=O)c1nc(N)nc2c(F)cccc12)c1cccc2cccnc12	–	57 nM	–
Nc1nc(C(=O)NCc2cccc3c2NCCC3)c2cccc(F)c2n1	7.6 nM	213 nM	–
Nc1nc(C(=O)NCc2ccc3ccccc3n2)c2cccc(F)c2n1	15 nM	78 nM	–
Nc1nc(C(=O)NCc2cccc3cc(C(=O)N4CCCc5ccccc54)cnc23)c2cccc(F)c2n1	4.4 nM	160 nM	–
Nc1nc(C(=O)NCC2CCCCC2)c2cccc(F)c2n1	45 nM	170 nM	–
Nc1cc(C(=O)NCc2cccc3cccnc23)c2ccccc2n1	836 nM	17600 nM	solubility [9]: 19 µM (≈ 6.24 µg/mL)
Nc1nc(C(=O)NCc2cncc3ccccc23)c2cccc(F)c2n1	26.7 nM	78 nM	–
Nc1nc(C(=O)NCc2cccc3cccnc23)c2cccc(Br)c2n1	–	10 nM	–

SMILES	Ki (Adenosine receptor A2a [1])	Ki (Adenosine receptor A1)	further results
Nc1nc(C(=O)NCc2cccc3cccnc23)c2cccc(I)c2n1	3.1 nM	33 nM	inhibition in vivo at 10 mg/kg (Rattus norvegicus [3]): 23%; AUC at 1 h [4]: 1.3 µM·h
COc1cccc2c(C(=O)NCc3cccc4cccnc34)nc(N)nc12	–	6 nM	Ki (Adenosine receptor A2a [2]; read-out: Ki): 0.6 nM; inhibition in vivo at 30 mg/kg (Rattus norvegicus [5]): 31%; AUC at 1 h [6]: 0.8 µM·h
CCn1cnc2c(CNC(=O)c3nc(N)nc4c(F)cccc34)cccc21	3.1 nM	24 nM	–
CN(CCCc1ccccn1)C(=O)c1cnc2c(CNC(=O)c3nc(N)nc4c(F)cccc34)cccc2c1	12 nM	210 nM	–
Nc1nc(C(=O)NCc2cccc3ccccc23)c2cccc(F)c2n1	10.1 nM	90 nM	–
Nc1nc(C(=O)NCc2cccc3c2OCCN3)c2cccc(F)c2n1	21.5 nM	135 nM	–
C[C@H](NC(=O)c1nc(N)nc2c(F)cccc12)c1cccc2cccnc12	126 nM	524 nM	–
Nc1nc(C(=O)NCc2nccc3ccccc23)c2cccc(F)c2n1	6.7 nM	84 nM	–
Nc1nc(C(=O)NCc2cccc3[nH]cnc23)c2cccc(F)c2n1	25 nM	281 nM	–
Nc1nc(C(=O)NCc2cccc3cc(C(=O)N4CCN(c5ccccn5)CC4)cnc23)c2cccc(F)c2n1	2.7 nM	110 nM	Ki (Adenosine receptor A2a [2]; read-out: Ki): 12.5 nM
Nc1nc(C(=O)NCc2cccc3c2OCCO3)c2cccc(F)c2n1	20 nM	103 nM	–
CCOc1ccnc2c(CNC(=O)c3nc(N)nc4c(F)cccc34)cccc12	73.2 nM	252 nM	–
Nc1nc(C(=O)NCc2cccc3cccnc23)c2cccc(Cl)c2n1	–	213 nM	Ki (Adenosine receptor A2a [2]; read-out: Ki): 2.9 nM; inhibition in vivo at 30 mg/kg (Rattus norvegicus [5]): 35%
Cc1ccccc1CNC(=O)c1nc(N)nc2c(F)cccc12	13.6 nM	116 nM	–
Nc1nc(C(=O)NCc2cccc3cc(C(=O)NCCCCCc4ccccc4)cnc23)c2cccc(F)c2n1	6.9 nM	160 nM	–
Nc1nc(C(=O)NCc2cccc3cccnc23)c2cccc(OC(F)(F)F)c2n1	–	20 nM	Ki (Adenosine receptor A2a [2]; read-out: Ki): 2.9 nM; inhibition in vivo at 30 mg/kg (Rattus norvegicus [5]): 0%
Cn1nccc1-c1cccc2c(C(=O)NCc3cccc4cccnc34)nc(N)nc12	1040 nM	6040 nM	–
Nc1nc(C(=O)NCc2ccccc2)c2cccc(F)c2n1	5.4 nM	83 nM	–
Nc1nc(C(=O)NCc2cccc3cccnc23)c2ccccc2n1	1.1 nM	90 nM	Ki (Adenosine receptor A2a [2]; read-out: Ki): 11 nM; inhibition in vivo at 30 mg/kg (Rattus norvegicus [5]): 61%; inhibition in vivo at 10 mg/kg (Rattus norvegicus [3]): 35%; AUC at 1 h [4]: 1.6 µM·h; solubility [9]: 124 µM (≈ 40.8 µg/mL); Ki (Adenosine receptor A2b): 1470 nM; Ki (Adenosine receptor A3): 985 nM; concentration at 1 h [10]: 4.2 µM; concentration at 1 h [11]: 3.1 µM; fraction unbound [12]: 0.045; fraction unbound [13]: 0.036; half-life [14]: 30 min; Papp [15]: 40 ×10⁻⁶ cm/s; hepatocyte CLint [16]: 12.8 µL/min/1e6 cells; hepatocyte CLint [17]: 34.8 µL/min/1e6 cells; fold change (FC) (Cytochrome P450 3A4 [18]): 3
Cc1cccc(CNC(=O)c2nc(N)nc3c(F)cccc23)c1	8.4 nM	112 nM	–
Nc1nc(C(=O)NCc2cccc3cccnc23)c2cc(Cl)cc(Cl)c2n1	6.6 nM	50 nM	–
Nc1nc(C(=O)NCCc2ccccc2)c2cccc(F)c2n1	160 nM	559 nM	–
COc1ccnc2c(CNC(=O)c3nc(N)nc4c(F)cccc34)cccc12	15.2 nM	69 nM	Ki (Adenosine receptor A2a [2]; read-out: Ki): 1.3 nM
